Reference: the NIST ThermoML archive (doi:10.1016/j.jct.2018.04.019)
“And” between values parts separate entries of the source, which are not always exact repeats. Identical values can stand only once. ± gives the expanded uncertainty stated by the source.

Details: Liquid; for speed of sound: Frequency=5 MHz, Pulse-echo method; for mass density: Vibrating tube method

CCCCCCCCC [nonane]
Details	mass density	speed of sound
373.14 K, 360090 kPa	–	2160.1 ± 2.6 m/s
373.14 K, 389860 kPa	–	2212.9 ± 2.7 m/s
373.15 K, 1010 kPa	654.52 ± 0.63 kg/m3	–
373.15 K, 5050 kPa	659.99 ± 0.64 kg/m3	–
373.15 K, 10030 kPa	666.13 ± 0.66 kg/m3	–
373.15 K, 15070 kPa	671.78 ± 0.69 kg/m3	–
373.15 K, 20030 kPa	677.04 ± 0.71 kg/m3	–
373.15 K, 25060 kPa	681.94 ± 0.74 kg/m3	–
373.15 K, 30040 kPa	686.51 ± 0.77 kg/m3	–
373.15 K, 35060 kPa	690.83 ± 0.8 kg/m3	–
373.15 K, 40020 kPa	694.95 ± 0.83 kg/m3	–
373.15 K, 45070 kPa	698.87 ± 0.86 kg/m3	–
373.15 K, 50070 kPa	702.65 ± 0.9 kg/m3	–
373.15 K, 55060 kPa	706.23 ± 0.93 kg/m3	–
373.15 K, 60040 kPa	709.66 ± 0.96 kg/m3	–
373.15 K, 65030 kPa	712.95 ± 1 kg/m3	–
398.14 K, 1100 kPa	–	835.44 ± 1.9 m/s and 835.46 ± 1.9 m/s
398.14 K, 30140 kPa	–	1079.8 ± 1.8 m/s
398.14 K, 60240 kPa	–	1254.1 ± 1.7 m/s
398.14 K, 90220 kPa	–	1391.9 ± 1.8 m/s
398.14 K, 120200 kPa	–	1508.5 ± 1.8 m/s
398.14 K, 150150 kPa	–	1610.2 ± 2 m/s
398.14 K, 180170 kPa	–	1701.7 ± 2.1 m/s
398.14 K, 210020 kPa	–	1784.3 ± 2.2 m/s
398.14 K, 240150 kPa	–	1861.3 ± 2.3 m/s
398.14 K, 270210 kPa	–	1933.1 ± 2.4 m/s
398.14 K, 299860 kPa	–	1999.6 ± 2.5 m/s
398.14 K, 330010 kPa	–	2063.7 ± 2.6 m/s
398.14 K, 360010 kPa	–	2124 ± 2.6 m/s
398.14 K, 389950 kPa	–	2182.2 ± 2.7 m/s
398.15 K, 1020 kPa	633.06 ± 0.64 kg/m3	–
398.15 K, 5020 kPa	639.53 ± 0.65 kg/m3	–
398.15 K, 5030 kPa	639.58 ± 0.65 kg/m3	–
398.15 K, 10050 kPa	646.89 ± 0.67 kg/m3	–
398.15 K, 15070 kPa	653.53 ± 0.7 kg/m3	–
398.15 K, 20020 kPa	659.49 ± 0.72 kg/m3	–
398.15 K, 25030 kPa	665.05 ± 0.75 kg/m3	–
398.15 K, 30050 kPa	670.22 ± 0.78 kg/m3	–
398.15 K, 35050 kPa	675.1 ± 0.82 kg/m3	–
398.15 K, 40020 kPa	679.63 ± 0.85 kg/m3	–
398.15 K, 45070 kPa	683.97 ± 0.89 kg/m3	–
398.15 K, 50020 kPa	688.07 ± 0.92 kg/m3	–
398.15 K, 55040 kPa	692.01 ± 0.96 kg/m3	–
398.15 K, 60030 kPa	695.72 ± 0.99 kg/m3	–
398.15 K, 65040 kPa	699.37 ± 1 kg/m3	–
423.14 K, 1110 kPa	–	747.67 ± 2.1 m/s
423.14 K, 1120 kPa	–	747.72 ± 2.1 m/s
423.14 K, 29690 kPa	–	1013.6 ± 1.8 m/s
423.14 K, 60210 kPa	–	1199.1 ± 1.7 m/s
423.14 K, 90050 kPa	–	1341 ± 1.7 m/s
423.14 K, 120570 kPa	–	1462.7 ± 1.8 m/s
423.14 K, 150110 kPa	–	1565.4 ± 1.9 m/s
423.14 K, 180160 kPa	–	1658.8 ± 2 m/s
423.14 K, 210180 kPa	–	1744 ± 2.2 m/s
423.14 K, 239990 kPa	–	1822.3 ± 2.3 m/s
423.14 K, 270120 kPa	–	1895.7 ± 2.4 m/s
423.14 K, 299980 kPa	–	1964.4 ± 2.4 m/s
423.14 K, 330040 kPa	–	2029.4 ± 2.5 m/s
423.14 K, 360020 kPa	–	2089.7 ± 2.6 m/s
423.14 K, 389720 kPa	–	2146.1 ± 2.7 m/s
423.15 K, 1020 kPa	610.45 ± 0.65 kg/m3	–
423.15 K, 5030 kPa	618.47 ± 0.66 kg/m3 and 618.42 ± 0.66 kg/m3	–
423.15 K, 10030 kPa	627.15 ± 0.68 kg/m3	–
423.15 K, 15030 kPa	634.86 ± 0.71 kg/m3	–
423.15 K, 20040 kPa	641.8 ± 0.74 kg/m3	–
423.15 K, 25040 kPa	648.1 ± 0.77 kg/m3	–
423.15 K, 30020 kPa	653.92 ± 0.8 kg/m3	–
423.15 K, 35050 kPa	659.35 ± 0.84 kg/m3	–
423.15 K, 40020 kPa	664.4 ± 0.87 kg/m3	–
423.15 K, 45020 kPa	669.15 ± 0.91 kg/m3	–
423.15 K, 50040 kPa	673.7 ± 0.95 kg/m3	–
423.15 K, 55020 kPa	677.97 ± 0.98 kg/m3	–
423.15 K, 60030 kPa	682.03 ± 1 kg/m3	–
423.15 K, 65040 kPa	685.95 ± 1.1 kg/m3	–
448.15 K, 1000 kPa	586.37 ± 0.66 kg/m3	–
448.15 K, 1040 kPa	–	660.9 ± 2.3 m/s
448.15 K, 5020 kPa	596.41 ± 0.67 kg/m3 and 596.46 ± 0.67 kg/m3	–
448.15 K, 10040 kPa	607.05 ± 0.69 kg/m3	–
448.15 K, 15010 kPa	616.06 ± 0.72 kg/m3	–
448.15 K, 20010 kPa	624 ± 0.75 kg/m3	–
448.15 K, 25040 kPa	631.27 ± 0.79 kg/m3	–
448.15 K, 30030 kPa	637.78 ± 0.82 kg/m3	–
448.15 K, 30440 kPa	–	960.29 ± 1.9 m/s
448.15 K, 35030 kPa	643.8 ± 0.86 kg/m3	–
448.15 K, 40010 kPa	649.38 ± 0.9 kg/m3	–
448.15 K, 45050 kPa	654.67 ± 0.93 kg/m3	–
448.15 K, 50020 kPa	659.58 ± 0.97 kg/m3	–
448.15 K, 55040 kPa	664.24 ± 1 kg/m3	–
448.15 K, 60030 kPa	668.62 ± 1.1 kg/m3	–
448.15 K, 60490 kPa	–	1150.5 ± 1.7 m/s
448.15 K, 65020 kPa	672.85 ± 1.1 kg/m3	–
448.15 K, 90220 kPa	–	1296 ± 1.7 m/s
448.15 K, 120320 kPa	–	1418.8 ± 1.8 m/s
448.15 K, 150280 kPa	–	1525 ± 1.9 m/s
448.15 K, 180150 kPa	–	1619.4 ± 2 m/s
448.15 K, 209900 kPa	–	1704.9 ± 2.1 m/s
448.15 K, 239920 kPa	–	1784.3 ± 2.2 m/s
448.15 K, 270080 kPa	–	1858.4 ± 2.3 m/s
448.15 K, 299830 kPa	–	1929.8 ± 2.4 m/s
448.15 K, 330050 kPa	–	1995.9 ± 2.5 m/s
448.15 K, 359980 kPa	–	2059.2 ± 2.6 m/s
448.15 K, 390310 kPa	–	2115.1 ± 2.6 m/s
473.15 K, 1010 kPa	–	574.55 ± 2.6 m/s
473.15 K, 5010 kPa	573.14 ± 0.69 kg/m3	–
473.15 K, 10040 kPa	586.15 ± 0.71 kg/m3	–
473.15 K, 15040 kPa	596.86 ± 0.74 kg/m3	–
473.15 K, 20020 kPa	606.05 ± 0.77 kg/m3	–
473.15 K, 25050 kPa	614.28 ± 0.81 kg/m3	–
473.15 K, 30020 kPa	621.6 ± 0.84 kg/m3	–
473.15 K, 30430 kPa	–	906.04 ± 1.9 m/s
473.15 K, 35030 kPa	628.3 ± 0.88 kg/m3	–
473.15 K, 40050 kPa	634.51 ± 0.92 kg/m3	–
473.15 K, 45050 kPa	640.25 ± 0.96 kg/m3	–
473.15 K, 50040 kPa	645.6 ± 1 kg/m3	–
473.15 K, 55020 kPa	650.62 ± 1 kg/m3	–
473.15 K, 60010 kPa	655.39 ± 1.1 kg/m3	–
473.15 K, 60390 kPa	–	1104.6 ± 1.6 m/s
473.15 K, 65010 kPa	659.92 ± 1.1 kg/m3	–
473.15 K, 90200 kPa	–	1255.4 ± 1.7 m/s
473.15 K, 120100 kPa	–	1381 ± 1.8 m/s
473.15 K, 150230 kPa	–	1490.6 ± 1.9 m/s
473.15 K, 180260 kPa	–	1587.6 ± 2 m/s
473.15 K, 210230 kPa	–	1675.8 ± 2.1 m/s
473.15 K, 240070 kPa	–	1755.4 ± 2.2 m/s
473.15 K, 270130 kPa	–	1830.8 ± 2.3 m/s
473.15 K, 300080 kPa	–	1901.9 ± 2.4 m/s
473.15 K, 330030 kPa	–	1964.8 ± 2.5 m/s
473.15 K, 360070 kPa	–	2026.3 ± 2.6 m/s
473.15 K, 390060 kPa	–	2084 ± 2.6 m/s
